{"source": "paper PMC7613620", "about": "“Reaction hijacking of tyrosine tRNA synthetase as a whole-of-life-cycle antimalarial strategy” (Science (New York, N.Y.), 2022)", "key": {"HsYRS [1]": {"biological_target": "T1, HsYRS (Homo sapiens, UniProt P54577)", "T1 construct": "made in house; host or cells: E. coli BL21(DE3), pET-11a", "T1 sequence (P54577 1-364)": "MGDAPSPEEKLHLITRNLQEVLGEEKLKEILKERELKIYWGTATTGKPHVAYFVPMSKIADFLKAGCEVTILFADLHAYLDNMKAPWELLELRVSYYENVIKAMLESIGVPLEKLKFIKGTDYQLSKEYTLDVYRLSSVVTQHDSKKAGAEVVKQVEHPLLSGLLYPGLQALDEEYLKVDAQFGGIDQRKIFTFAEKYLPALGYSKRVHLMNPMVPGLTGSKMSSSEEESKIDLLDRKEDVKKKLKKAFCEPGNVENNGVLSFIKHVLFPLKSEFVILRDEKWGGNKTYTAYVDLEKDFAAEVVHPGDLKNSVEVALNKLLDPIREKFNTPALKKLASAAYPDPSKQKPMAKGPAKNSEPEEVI", "experiment": "Differential scanning fluorimetry, HsYRS", "type": "binding", "conditions": "in the presence of ML901 plus substrates", "method": "This DNA template and its complementary strand were custom-synthesized by Sigma-\n810 (HiScribe™ T7 Quick High Yield RNA Synthesis Kit, NEB). On the following day, the reaction mixture\n820 was sealed and analysed using StepOnePlus Real-Time PCR system (Applied Biosystems). The samples\nThe thermal unfolding curve was plotted\nThe melting temperature (Tm), defined as the\nReactions were conducted in 50 mM Tris-\nReactions were conducted in 50 mM Tris-HCL, pH 7.6,"}, "HsYRS [2]": {"biological_target": "T1, HsYRS", "experiment": "Tyrosine acylation of cognate tRNATyr by HsYRS", "type": "biochemical", "conditions": "YRS 0.25 μM, ATP 10 μM, 37°C 1 h"}, "in vivo": {"experiment": "in vivo", "conditions": "male, Sprague-Dawley, rat", "method": "625 of 50 mg/kg of compound on day 3 post-infection and measuring the effect on blood parasitemia by\n626 microscopic analysis of Giemsa-stained blood smears (on days 3, 4, 5, 6 and 7 post-infection). Mice were\n630 Human biological samples were sourced ethically; and their research use was in accord with the terms of\n631 the informed consent. All animal studies were ethically reviewed and carried out in accredited facilities in\n632 accordance with the relevant country’s directives and the institution’s Policy on the Care, Welfare and\n633 Treatment of Animals.\n635 Plasma exposure in infected mouse model\n636 Compound was administered orally to two mice at 25 mg/kg on days 3, 4, 5, 6 after infection. On day 3,\n637 blood samples (20 μL) were obtained at time points up to 24 hours after the first administration. Protein was\n638 precipitated with acetonitrile and the remaining compound was assessed by LC-MS/MS in the selected reaction\n641 Rat pharmacokinetics (PK) analyses\n642 Sprague-Dawley rats (11 weeks old) were sourced from Hilltop Lab Animals, Inc (Scottdale, Pennsylvania,\n643 USA). […]\n648 0.5% formic acid in methanol and the supernatants were analysed by positive ion electrospray LC-MS for\n649 the administered compound. Non-compartmental pharmacokinetic parameters were calculated from […]\n660 IGM Genomics Center on the Illumina HiSeq 2500 in RapidRun mode to generate 100bp paired-end reads."}, "[3]": {"test_system": "eIF2α phosphorylation in P. falciparum", "experiment": "Western blot for phosphorylated-eIF2α", "type": "cell-based, Plasmodium falciparum", "method": "Synchronous ring-stage YRScyt conditional knockdown line and the aptamer-regulatable control\n700 the drug plate. Lowest drug treatment and a lethal dose of chloroquine (200 nM) served as reference\nTwo guide RNAs (gRNA1: […] and gRNA2:\nRing-stage P. falciparum parasites (Dd2 strain) at 10%\nUsing a modification of a published procedure (14), the\n722 cells were labelled with O-propargyl-puromycin (OPP; 4 µM) for 1 h, washed 3x (PBS +3% serum) and\nFlow cytometry was performed\n730 hematocrit and 5% parasitemia. The RBC pellet was washed 3 x in PBS + cOmplete. Cells were centrifuged\nThe wash with PBS + cOmplete and\nThe pellet was resuspended in Bolt LDS sample\nThe samples were vortexed for 10 min at room temperature.\nSecondary antibodies: goat\n740 anti-rabbit IgG-peroxidase (Sigma-Aldrich-A0545; 1:20 000), goat anti-mouse IgG-peroxidase (Chemicon-\nChemiluminescence was detected using the Bio-Rad ChemiDocTM MP imaging\nFor the human mature YRS construct,\nThe YRS sequences were codon optimized for E. coli,\nThe vector was transformed into\nPfYRS, PfYRSS234C and HsYRS were induced\nCell pellets were resuspended in 40 mL lysis\nCells were lysed by sonication (Microtip, QSonica)\nThe supernatant was applied to a 5\n757 mL HisTrap HP column (GE Healthcare) and washed with 50 mL binding buffer containing 50 mM Tris-\nHis-YRS was eluted using a 0-500 mM\nThe eluted His-YRS was dialyzed overnight at 4°C\n760 against 50 mM Tris-HCl, pH 8, 500 mM NaCl, 30 mM imidazole, 1 mM TCEP with the addition of His-\nCleaved His tags from His-YRS and TEV\nYRS was further purified by gel filtration using a HiLoad 16/600 Superdex 200 column (GE"}}}
{"smiles": "Nc1ncnc2c1c(OC(F)F)nn2[C@@H]1O[C@H](COS(N)(=O)=O)[C@@H](O)[C@H]1O", "note": "[ML901]", "values": [{"measurement": "thermal stabilization of HsYRS", "setting": "HsYRS [1]", "result": "not stabilized"}, {"measurement": "IC50", "setting": "HsYRS [2]", "result": "> 500", "unit": "µM"}, {"measurement": "Vd", "setting": "in vivo; iv, 1 mg/kg, Vss", "result": 4.89, "unit": "L/kg"}, {"measurement": "Cmax", "setting": "in vivo; po, 10 mg/kg, p.o. Cmax", "result": 130, "unit": "nM"}, {"measurement": "eIF2α phosphorylation", "setting": "[3]; eIK1 knockout parasites", "result": "does not result in eIF2α phosphorylation"}, {"measurement": "eIF2α phosphorylation", "setting": "[3]; wildtype P. falciparum cultures", "result": "triggers eIF2α phosphorylation"}]}
